# Assay results as given in patent publication US5929038A, “Pharmaceutical preparations which inhibit hepatitis B virus (HBV) replication” (Choongwae Pharmaceutical Co., Ltd., priority 1992, dated 1999).
# Several values for one entry are separate records, joined by “and”; a condition that tells them apart may be missing. Equal entries are not always repeated. Entries after “also recorded” stand apart in the source; their conditions may differ. Where two headings read alike, the source gives them in different places.
# Assays:
# Sarcoma 180 cells = conditions: cited from earlier work
# [1] = test system: liver damage caused by α-amantin intoxication; conditions: mice; cited from earlier work
# mice = type: in vivo; conditions: for Alkaline phosphatase / SGOT / Triglyceride: serum at 24 hours; for Fatalities: 24 hours, ten mice
# [2] = test system: hepatic damage induced by carbon tetrachloride; conditions: laboratory animals; cited from earlier work
# gram positive bacteria = conditions: cited from earlier work
# HBV DNA replication = experiment: Effects on HBV DNA replication in 2.2.15 cells in culture (intracellular HBV DNA and HBV virion DNA); type: cell-based, hepatitis B virus; conditions: for Intracellular HBV DNA, Mono. / Intracellular HBV DNA, RI (Replicating Intermediate): 24 hrs following the 9th day of treatment; for HBV Virion DNA, Day 0: Day 0, before first dose
# 2.2.15 cells = experiment: Cell toxicity test (neutral red dye uptake); type: cell-based; conditions: plate 23
# Description: Toxicity testing was performed in 96-well flat bottomed tissue culture plates. These cells were cultured and treated on same schedule as the test compounds used for antiviral evaluation (example 1). Each group at four concentrations was tested in triplicate cultures. Uptake of neutral red dye was used to determine the relative level of toxicity. The absorbance of internalized dye at 510 nm (A510) was used for the quantitative analysis. Values are presented as a percentage of the average A510 values (mean ± standard deviation) in 9 separate cultures of untreated cells maintained on the same 96-well plate as used for the test compound. The percentage of dye uptake in the 9 controlled cultures on plate 23 was 100±4.
# [3] = 30 μM + 30'Gly. (incubated 30 min with glycosidase)
# [4] = 30 μM + Gly. (first group, 123AE/AF/BE/BF)
# [5] = 30 μM + Gly. (second group, 123AG/AH/BG/BH)
# [6] = 100 μM + 30'Gly. (incubated 30 min with glycosidase)
# [7] = 300 μM + 30'Gly. (incubated 30 min with glycosidase)
# [8] = 300 μM + Gly. (glucosidase, no incubation)
# [9] = 1000 μM + 30'Gly. (incubated 30 min with glycosidase)
# [10] = 1000 μM + Gly. (glucosidase, no incubation)
smiles,measurement,setting,value
"OCC1=CC(O)C2C=COC(O[C@@H]3O[C@H](CO)[C@@H](O)[C@H](O)[C@H]3O)C12 (stereo partly drawn) [Aucubin, 1,4,5, 7α-tetrahydro-5-hydroxy-17-(hydroxymethyl)cyclopenta[c]pyran-1-yl-β-D-glucopyranose]",Inhibitory effects on RNA and protein biosynthesis,Sarcoma 180 cells,can exert inhibitory effects on RNA and protein biosynthesis in Sarcoma 180 cells
same,Liver-protective activity against α-amantin,[1],protects the liver from damages caused by α-amantin intoxication in mice
same,Alkaline phosphatase,mice; 100 mg/kg i.p.,236 IU/L
same,SGOT,mice; 100 mg/kg i.p.,261 IU/L
same,Fatalities,mice; 100 mg/kg intraperitoneal single dose,0 No.
same,Alkaline phosphatase,mice; 300 mg/kg i.p.,157 IU/L
same,SGOT,mice; 300 mg/kg i.p.,194 IU/L
same,Triglyceride,mice; 300 mg/kg i.p.,35 mg/dL
same,Fatalities,mice; 300 mg/kg intraperitoneal single dose,0 No.
same,Alkaline phosphatase,mice; 600 mg/kg i.p.,135 IU/L
same,SGOT,mice; 600 mg/kg i.p.,179 IU/L
same,Triglyceride,mice; 600 mg/kg i.p.,39 mg/dL
same,Fatalities,mice; 600 mg/kg intraperitoneal single dose,0 No.
same,SGOT,mice; 900 mg/kg i.p.,162 IU/L
same,Triglyceride,mice; 900 mg/kg i.p.,51 mg/dL
same,Fatalities,mice; 900 mg/kg intraperitoneal single dose,0 No.
same,fatality (in words),mice; 100-900 mg/kg i.p.,no fatality
same,activities of SGOT and alkaline phosphatase,mice; high dose,slight decline
same,serious toxic effect (in words),mice; high dose,no serious toxic effect occurred
same,triglyceride contents,mice; high dose,elevated slightly
same,minimum fatal dose,"mice; mouse, in vivo, ip",more than 900 mg/kg
same,Liver-protective activity against carbon tetrachloride,[2],protect the liver from hepatic damage induced by carbon tetrachloride intoxication
same,Antibacterial activity,gram positive bacteria,Antibacterial activity was noted mainly on gram positive bacteria
same,inhibition of HBV DNA biosynthesis / antiviral activity (in words),HBV DNA replication,exerts an antiviral activity aganist HBV infection; also recorded: marked inhibition of HBV DNA biosynthesis
same,"Intracellular HBV DNA, Mono.",HBV DNA replication; [3],2.5 pg/μg cell DNA and 2.4 pg/μg cell DNA and 2.3 pg/μg cell DNA and 2.7 pg/μg cell DNA
same,"Intracellular HBV DNA, RI (Replicating Intermediate)",HBV DNA replication; [3],92 pg/μg cell DNA and 68 pg/μg cell DNA and 59 pg/μg cell DNA
same,"HBV Virion DNA, Day 0",HBV DNA replication; 30 μM + 30'Gly.,61 pg/ml culture medium and 79 pg/ml culture medium and 68 pg/ml culture medium
same,"HBV Virion DNA, Day 3",HBV DNA replication; 30 μM + 30'Gly.,85 pg/ml culture medium and 94 pg/ml culture medium and 51 pg/ml culture medium and 75 pg/ml culture medium
same,"HBV Virion DNA, Day 6",HBV DNA replication; 30 μM + 30'Gly.,70 pg/ml culture medium and 62 pg/ml culture medium and 55 pg/ml culture medium and 75 pg/ml culture medium
same,"HBV Virion DNA, Day 9",HBV DNA replication; 30 μM + 30'Gly.,80 pg/ml culture medium and 48 pg/ml culture medium and 87 pg/ml culture medium and 91 pg/ml culture medium
same,"Intracellular HBV DNA, Mono.",HBV DNA replication; [4],2.6 pg/μg cell DNA and 2.8 pg/μg cell DNA and 2.4 pg/μg cell DNA and 2.1 pg/μg cell DNA
same,"Intracellular HBV DNA, RI (Replicating Intermediate)",HBV DNA replication; [4],21 pg/μg cell DNA and 27 pg/μg cell DNA and 22 pg/μg cell DNA and 26 pg/μg cell DNA
same,"HBV Virion DNA, Day 0",HBV DNA replication; [4],52 pg/ml culture medium and 76 pg/ml culture medium and 55 pg/ml culture medium
same,"HBV Virion DNA, Day 3",HBV DNA replication; [4],59 pg/ml culture medium and 77 pg/ml culture medium and 51 pg/ml culture medium
same,"HBV Virion DNA, Day 6",HBV DNA replication; [4],40 pg/ml culture medium and 48 pg/ml culture medium and 66 pg/ml culture medium and 59 pg/ml culture medium
same,"HBV Virion DNA, Day 9",HBV DNA replication; [4],15 pg/ml culture medium and 22 pg/ml culture medium
same,"Intracellular HBV DNA, Mono.",HBV DNA replication; [5],2.6 pg/μg cell DNA and 2.8 pg/μg cell DNA and 2.4 pg/μg cell DNA and 2.1 pg/μg cell DNA
same,"Intracellular HBV DNA, RI (Replicating Intermediate)",HBV DNA replication; [5],70 pg/μg cell DNA and 75 pg/μg cell DNA and 63 pg/μg cell DNA and 68 pg/μg cell DNA
same,"HBV Virion DNA, Day 0",HBV DNA replication; [5],67 pg/ml culture medium
same,"HBV Virion DNA, Day 3",HBV DNA replication; [5],94 pg/ml culture medium and 82 pg/ml culture medium and 97 pg/ml culture medium and 62 pg/ml culture medium
same,"HBV Virion DNA, Day 6",HBV DNA replication; [5],58 pg/ml culture medium and 61 pg/ml culture medium and 69 pg/ml culture medium
same,"HBV Virion DNA, Day 9",HBV DNA replication; [5],55 pg/ml culture medium and 72 pg/ml culture medium and 70 pg/ml culture medium and 67 pg/ml culture medium
same,"Intracellular HBV DNA, Mono.",HBV DNA replication; [6],2.5 pg/μg cell DNA and 2.4 pg/μg cell DNA and 2.3 pg/μg cell DNA and 2.7 pg/μg cell DNA
same,"Intracellular HBV DNA, RI (Replicating Intermediate)",HBV DNA replication; [6],33 pg/μg cell DNA and 32 pg/μg cell DNA and 27 pg/μg cell DNA and 26 pg/μg cell DNA
same,"HBV Virion DNA, Day 0",HBV DNA replication; 100 μM + 30'Gly.,55 pg/ml culture medium and 51 pg/ml culture medium and 86 pg/ml culture medium
same,"HBV Virion DNA, Day 3",HBV DNA replication; 100 μM + 30'Gly.,80 pg/ml culture medium and 49 pg/ml culture medium and 50 pg/ml culture medium and 57 pg/ml culture medium
same,"HBV Virion DNA, Day 6",HBV DNA replication; 100 μM + 30'Gly.,50 pg/ml culture medium and 66 pg/ml culture medium and 41 pg/ml culture medium and 45 pg/ml culture medium
same,"HBV Virion DNA, Day 9",HBV DNA replication; 100 μM + 30'Gly.,16 pg/ml culture medium
same,"Intracellular HBV DNA, Mono.",HBV DNA replication; [7],2.4 pg/μg cell DNA and 2.6 pg/μg cell DNA and 1.9 pg/μg cell DNA and 2.0 pg/μg cell DNA
same,"Intracellular HBV DNA, RI (Replicating Intermediate)",HBV DNA replication; [7],11 pg/μg cell DNA and 10 pg/μg cell DNA and 7 pg/μg cell DNA and 9 pg/μg cell DNA
same,"HBV Virion DNA, Day 0",HBV DNA replication; 300 μM + 30'Gly.,88 pg/ml culture medium and 51 pg/ml culture medium and 50 pg/ml culture medium and 59 pg/ml culture medium
same,"HBV Virion DNA, Day 3",HBV DNA replication; 300 μM + 30'Gly.,80 pg/ml culture medium and 55 pg/ml culture medium and 61 pg/ml culture medium
same,"HBV Virion DNA, Day 6",HBV DNA replication; 300 μM + 30'Gly.,54 pg/ml culture medium and 39 pg/ml culture medium and 44 pg/ml culture medium
same,"HBV Virion DNA, Day 9",HBV DNA replication; 300 μM + 30'Gly.,9 pg/ml culture medium and 7 pg/ml culture medium and 6 pg/ml culture medium and 8 pg/ml culture medium
same,"Intracellular HBV DNA, Mono.",HBV DNA replication; [8],2.0 pg/μg cell DNA and 2.4 pg/μg cell DNA and 2.5 pg/μg cell DNA
same,"Intracellular HBV DNA, RI (Replicating Intermediate)",HBV DNA replication; [8],7 pg/μg cell DNA and 6 pg/μg cell DNA and 5 pg/μg cell DNA and 9 pg/μg cell DNA
same,"HBV Virion DNA, Day 0",HBV DNA replication; 300 μM + Gly.,54 pg/ml culture medium and 59 pg/ml culture medium and 77 pg/ml culture medium and 66 pg/ml culture medium
same,"HBV Virion DNA, Day 3",HBV DNA replication; 300 μM + Gly.,66 pg/ml culture medium and 89 pg/ml culture medium and 98 pg/ml culture medium
same,"HBV Virion DNA, Day 6",HBV DNA replication; 300 μM + Gly.,54 pg/ml culture medium and 48 pg/ml culture medium and 44 pg/ml culture medium and 51 pg/ml culture medium
same,"HBV Virion DNA, Day 9",HBV DNA replication; 300 μM + Gly.,9 pg/ml culture medium and 7 pg/ml culture medium and 5 pg/ml culture medium and 6 pg/ml culture medium
same,"Intracellular HBV DNA, Mono.",HBV DNA replication; [9],2.3 pg/μg cell DNA and 2.0 pg/μg cell DNA and 2.1 pg/μg cell DNA
same,"Intracellular HBV DNA, RI (Replicating Intermediate)",HBV DNA replication; [9],3 pg/μg cell DNA and 2 pg/μg cell DNA and 4 pg/μg cell DNA
same,"HBV Virion DNA, Day 0",HBV DNA replication; 1000 μM + 30'Gly.,84 pg/ml culture medium and 70 pg/ml culture medium and 79 pg/ml culture medium and 59 pg/ml culture medium
same,"HBV Virion DNA, Day 3",HBV DNA replication; 1000 μM + 30'Gly.,67 pg/ml culture medium and 66 pg/ml culture medium and 78 pg/ml culture medium
same,"HBV Virion DNA, Day 6",HBV DNA replication; 1000 μM + 30'Gly.,20 pg/ml culture medium and 17 pg/ml culture medium and 24 pg/ml culture medium
same,"HBV Virion DNA, Day 9",HBV DNA replication; 1000 μM + 30'Gly.,2 pg/ml culture medium and 3 pg/ml culture medium
same,"Intracellular HBV DNA, Mono.",HBV DNA replication; [10],2.2 pg/μg cell DNA and 2.1 pg/μg cell DNA and 2.3 pg/μg cell DNA and 2.6 pg/μg cell DNA
same,"Intracellular HBV DNA, RI (Replicating Intermediate)",HBV DNA replication; [10],3 pg/μg cell DNA and 2 pg/μg cell DNA
same,"HBV Virion DNA, Day 0",HBV DNA replication; 1000 μM + Gly.,64 pg/ml culture medium and 81 pg/ml culture medium and 80 pg/ml culture medium
same,"HBV Virion DNA, Day 3",HBV DNA replication; 1000 μM + Gly.,70 pg/ml culture medium and 67 pg/ml culture medium
same,"HBV Virion DNA, Day 6",HBV DNA replication; 1000 μM + Gly.,25 pg/ml culture medium and 18 pg/ml culture medium and 22 pg/ml culture medium and 20 pg/ml culture medium
same,"HBV Virion DNA, Day 9",HBV DNA replication; 1000 μM + Gly.,1 pg/ml culture medium
same,Amount of dye uptake,"2.2.15 cells; Aucubin + 30'GLY. (preincubated 30 min with glucosidase), 300 μM",99 ± 2 % of control
same,Amount of dye uptake,"2.2.15 cells; Aucubin + 30'GLY. (preincubated 30 min with glucosidase), 1000 μM",99 ± 2 % of control
same,Amount of dye uptake,"2.2.15 cells; Aucubin + 30'GLY. (preincubated 30 min with glucosidase), 3000 μM",82 ± 2 % of control
same,Amount of dye uptake,"2.2.15 cells; Aucubin + 30'GLY. (preincubated 30 min with glucosidase), 10,000 μM",67 ± 3 % of control
same,Amount of dye uptake,"2.2.15 cells; Aucubin + GLY. (glucosidase without preincubation), 300 μM",99 ± 2 % of control
same,Amount of dye uptake,"2.2.15 cells; Aucubin + GLY. (glucosidase without preincubation), 1000 μM",99 ± 1 % of control
same,Amount of dye uptake,"2.2.15 cells; Aucubin + GLY. (glucosidase without preincubation), 3000 μM",93 ± 5 % of control
same,Amount of dye uptake,"2.2.15 cells; Aucubin + GLY. (glucosidase without preincubation), 10,000 μM",63 ± 6 % of control
same,Amount of dye uptake,"2.2.15 cells; Aucubin alone, 300 μM",99 ± 1 % of control
same,Amount of dye uptake,"2.2.15 cells; Aucubin alone, 1000 μM",100 ± 1 % of control
same,Amount of dye uptake,"2.2.15 cells; Aucubin alone, 3000 μM",85 ± 3 % of control
same,Amount of dye uptake,"2.2.15 cells; Aucubin alone, 10,000 μM",45 ± 3 % of control
